In patent US9599603B2, “Methods and compositions for modulating adhesion and migration of cadherin expressing cells” (Case Western Reserve University, priority 2008, dated 2017):

Tests used:
Type in all cases: cell-based
N-cadherin [1] = target: T1, N-cadherin (Homo sapiens, UniProt P19022); assay: RGC neurite outgrowth on N-cadherin substrate (antagonist screen); details: ADH-1 vs vehicle control (FIG. 16A)
T1 construct: Fc (C); purchased R&D Systems
Experimental: Sterile 35 mm tissue culture dishes for retinal explants were coated with nitrocellulose in methanol and allowed to dry, before spreading 0.04-0.045 μg/plate of human N-cadherin-Fc (R&D Systems, Minneapolis, Minn.) across the center of each dish. Remaining binding sites on the nitrocellulose were blocked with 2% bovine serum albumin (BSA; Sigma, St. Louis, Mo.) in calcium/magnesium free phosphate buffer (CMF), and the dishes were rinsed with RPMI-1640 medium (HyClone, Logan, Utah). Cultures of retinal explants from embryonic day 8 chick were made as previously described in. Retinal explants were grown in RPMI-1640, 10% fetal bovine serum (HyClone), 2% chick serum (Invitrogen, Carlsbad, Calif.), 100 U/ml penicillin, 0.1 mg/ml streptomycin and 0.025 μg/ml amphotericin (Sigma). […] Neurite outgrowth was evaluated approximately 20 hours after plating. […] If outgrowth was affected, subsequent experiments determined the minimum concentration to affect outgrowth. […]
Neurite outgrowth was examined on a Nikon TE-200 inverted microscope (Tokyo, Japan), using a 10× objective. […] Subsequently measurements of neurite length and density were quantitated using the images. Length of the five longest neurites per explant was measured using MetaMorph version 6.3r4 (Molecular Devices, Downington Pa.). […] Control and experimental conditions were analyzed using the same thresholding parameters. […]

Laminin = assay: LN-229 glioblastoma cell adhesion to Laminin substrate (specificity control); details: 1 mM ADH-1, compared to control
Experimental: (§1) Sterile 35 mm tissue culture dishes were coated with nitrocellulose in methanol and allowed to dry. Distinct spots, containing 50 ng of either purified Laminin (Sigma) or N-cadherin-Fc (R&D Systems), were made by spotting 10 μl of protein solution on the nitrocellulose-coated tissue culture dishes. Each dish contained two distinct spots of both Laminin and N-cadherin-Fc. After a 20-min incubation at room temperature, the protein solutions were aspirated. Remaining binding sites on the nitrocellulose were blocked with 2% BSA in PBS, and the dishes were rinsed with DMEM (Invitrogen).
(§2) LN-229 (American Type Culture Collection, Manassus, Va.) cells plated the previous day in 100 mm tissue culture dishes and grown to 80% confluence were released with 2 mM EDTA in CMF. 4×10^5 cells were added to each tissue culture dish in the presence of N-cadherin peptidomimetic small molecules, reconstituted in either DMSO or 0.3% cyclodextrin, and diluted in DMEM supplemented with 10% fetal bovine serum (HyClone). […]
(§3) Adherent cells were detected by phase contrast light microscopy using a 20× objective on a Nikon TE-200 inverted microscope. […] The number of adherent cells per image was determined using threshold parameters in MetaMorph that highlighted individual cells that spread on the substrate spots. […] Data from control and experimental conditions were evaluated using the same thresholding parameters. […]

N-cadherin [2] = target: T1, N-cadherin; assay: LN-229 glioblastoma cell adhesion to N-cadherin substrate; details: dose of 1 mM, 2 h adhesion
Experimental: as §1, §2, §3

T1 sequence (P19022 with tags, fused parts or gaps limits assumed): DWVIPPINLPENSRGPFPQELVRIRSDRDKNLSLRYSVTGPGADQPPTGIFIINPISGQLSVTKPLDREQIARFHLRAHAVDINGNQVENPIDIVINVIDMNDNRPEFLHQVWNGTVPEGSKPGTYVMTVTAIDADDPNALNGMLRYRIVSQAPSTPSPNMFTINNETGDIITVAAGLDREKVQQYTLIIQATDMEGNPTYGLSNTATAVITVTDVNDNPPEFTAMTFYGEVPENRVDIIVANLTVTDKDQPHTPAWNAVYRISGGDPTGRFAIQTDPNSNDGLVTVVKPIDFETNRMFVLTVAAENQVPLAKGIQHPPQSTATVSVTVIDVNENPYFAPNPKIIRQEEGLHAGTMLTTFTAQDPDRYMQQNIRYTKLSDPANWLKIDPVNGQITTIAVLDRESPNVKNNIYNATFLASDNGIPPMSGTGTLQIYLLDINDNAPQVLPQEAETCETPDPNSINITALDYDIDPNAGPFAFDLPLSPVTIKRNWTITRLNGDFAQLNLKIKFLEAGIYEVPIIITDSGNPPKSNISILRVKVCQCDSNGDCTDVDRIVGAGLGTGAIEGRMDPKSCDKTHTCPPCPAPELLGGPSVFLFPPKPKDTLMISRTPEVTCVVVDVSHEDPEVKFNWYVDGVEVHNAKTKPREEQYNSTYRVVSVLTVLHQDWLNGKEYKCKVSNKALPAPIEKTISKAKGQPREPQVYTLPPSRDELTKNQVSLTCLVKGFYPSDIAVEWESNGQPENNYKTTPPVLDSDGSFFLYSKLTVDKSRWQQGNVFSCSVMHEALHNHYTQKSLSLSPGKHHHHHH

- effect on RGC neurite outgrowth on a substrate of N-cadherin (N-cadherin [1]): eliminate RGC neurite outgrowth
- adhesion of LN-229 cells to an N-cadherin substrate (N-cadherin [2]): 46 % of control
SMILES: CC(=O)N[C@H]1CSSC[C@@H](C(N)=O)NC(=O)[C@H](C(C)C)NC(=O)[C@H](C)NC(=O)[C@H](Cc2c[nH]cn2)NC1=O [ADH-1, N-Ac-CHAVC-NH2]
- LN-229 adhesion to Laminin (Laminin): unaffected
